Measurements from ChEMBL document CHEMBL4765472, “Tenofovir-Amino Acid Conjugates Act as Polymerase Substrates-Implications for Avoiding Cellular Phosphorylation in the Discovery of Nucleotide Analogues” (J Med Chem, 2021).
The source made the active and inactive calls. No cut-off for these calls is given here.

Tests used:
[1] = system: Human immunodeficiency virus 1; assay: Substrate activity at HIV1 reverse transcriptase assessed as incorporation of compound into growing DNA strand at 500 uM incubated for 1 hr using primer and template in presence of MnCl2 by gel based nucleotide incorporation assay
[2] = system: Human immunodeficiency virus 1; assay: Inhibition of HIV1 reverse transcriptase assessed as reduction in dsDNA synthesis at 2.5 mM incubated for 1 hr by PicoGreen-based spectrophotometric assay
[3] = system: Human immunodeficiency virus 1; assay: Substrate activity at HIV1 reverse transcriptase assessed as incorporation of compound into growing DNA strand at 500 uM incubated for 1 hr using primer and template in presence of MgCl2 by gel based nucleotide incorporation assay
[4] = system: Human immunodeficiency virus 1; assay: Substrate activity at HIV1 reverse transcriptase assessed as incorporation of compound into growing DNA strand at 500 to 1000 uM incubated for 1 hr using primer and template in presence of MgCl2 by gel based nucleotide incorporation assay; details: dose 500-1000 µM
[5] = system: Human immunodeficiency virus 1; assay: Substrate activity at HIV1 reverse transcriptase assessed as incorporation of compound into growing DNA strand at 500 to 1000 uM incubated for 1 hr using primer and template in presence of MnCl2 by gel based nucleotide incorporation assay; details: dose 500-1000 µM
[6] = system: Human immunodeficiency virus 1; assay: Substrate activity at HIV1 reverse transcriptase assessed as incorporation of compound into growing DNA strand at 1 mM incubated for 1 hr using primer and template in presence of MnCl2 by gel based nucleotide incorporation assay
[7] = Inhibition of HIV1 reverse transcriptase assessed as reduction in dsDNA synthesis incubated for 1 hr by PicoGreen-based spectrophotometric assay; design: species or system Human immunodeficiency virus 1

Row | Structure (SMILES) | inhibition (active/not active) [2] | Activity [3] | Activity [4] | Activity [5] | Activity [6] | other results
1 | CSCC[C@H](NP(=O)(O)OC[C@H]1O[C@@H](n2cnc3c(N)ncnc32)C[C@@H]1O)C(=O)O | inactive | – | inactive | inactive | – | –
2 | C[C@H](Cn1cnc2c(N)ncnc21)OCP(=O)(O)N[C@@H](Cc1ccccc1)C(=O)O | inactive | – | – | – | Active | –
3 | N=C(N)NCCC[C@H](NP(=O)(O)OC[C@H]1O[C@@H](n2cnc3c(N)ncnc32)C[C@@H]1O)C(=O)O | inactive | – | inactive | inactive | – | –
4 | Nc1ncnc2c1ncn2[C@H]1C[C@H](O)[C@@H](COP(=O)(O)O)O1 | – | Active | – | – | – | –
5 | Nc1ncnc2c1ncn2[C@H]1C[C@H](O)[C@@H](COP(=O)(O)N[C@@H](CC(=O)O)C(=O)O)O1 | inactive | – | Active | Active | – | –
6 | C[C@H](Cn1cnc2c(N)ncnc21)OCP(=O)(O)N[C@@H](Cc1c[nH]cn1)C(=O)O | inactive | – | – | – | Active | –
7 | Nc1ncnc2c1ncn2[C@H]1C[C@H](O)[C@@H](COP(=O)(O)N[C@@H](Cc2ccccc2)C(=O)O)O1 | inactive | – | inactive | inactive | – | –
8 | C[C@H](Cn1cnc2c(N)ncnc21)OCP(=O)(O)O | – | inactive | – | – | – | –

Now from value to compound, other results behind:

Row | inhibition (active/not active) [2] | Activity [3] | Activity [4] | Activity [5] | Activity [6] | Structure (SMILES) | other results
9 | inactive | 26.8% | – | – | – | C[C@H](Cn1cnc2c(N)ncnc21)OCP(=O)(O)N[C@@H](CCC(=O)O)C(=O)O | Activity [1]: 40.8%
10 | inactive | Active | – | – | – | C[C@H](Cn1cnc2c(N)ncnc21)OCP(=O)(O)N[C@H](CC(=O)O)C(=O)O | –
11 | Active | – | – | – | – | CSCC[C@H](NP(=O)(O)CO[C@H](C)Cn1cnc2c(N)ncnc21)C(=O)O | IC50 [7]: 146 µM
12 | inactive | – | – | – | Active | C[C@H](Cn1cnc2c(N)ncnc21)OCP(=O)(O)N[C@@H](CC(=O)O)C(=O)O | –
13 | inactive | – | – | – | inactive | C[C@H](Cn1cnc2c(N)ncnc21)OCP(=O)(O)N[C@@H](CCCNC(=N)N)C(=O)O | –
